From patent publication US4333873A, “Pharmacologically active peptides” (Eli Lilly and Company, priority 1981, dated 1982)
Structures can show the parent of a compound that is named as a salt.

Test system: mouse
Test: mouse hot plate test (analgesic activity)
Type: in vivo
Conditions: hot plate 52° C., 15 minutes after administration, latency to jump
Experimental: In this test, a mouse is placed inside an upright acrylic cylinder comprising, as its base, a hot plate surface which is maintained at 52° C. The mouse is given, orally or by subcutaneous injection, a predetermined amount of test compound dissolved or suspended in a suitable carrier, and, 15 minutes after administration of the test compound, the mouse is placed on the hot plate surface. The latency in seconds until the mouse jumps from the hot plate surface is measure. […] This must occur in a dose range which produces no motor incoordination or incapacitation. The following Table records the ED50 results obtained from this test.

With `C=CCN(C(=O)CNC(=O)[C@@H](C)NC(=O)[C@@H](N)Cc1ccc(O)cc1)[C@@H](Cc1ccccc1)C(N)=O` [Example 1, L-Tyrosyl-D-alanyl-glycyl-L-(N^α -allyl)phenylalanine Amide, Acetate Salt] the “Analgesic Activity, Hot Plate Test ED50, mg./kg. subcutaneous” value was 0.01 mg/kg.

`C[C@@H](NC(=O)[C@@H](N)Cc1ccc(O)cc1)C(=O)NCC(=O)N(CC1CC1)[C@@H](Cc1ccccc1)C(N)=O` [Example 2, L-Tyrosyl-D-alanyl-glycyl-L-(N^α -cyclopropylmethyl)phenylalanine Amide, Acetate Salt] was tested, and the “Analgesic Activity, Hot Plate Test ED50, mg./kg. subcutaneous” value was 0.012 mg/kg.
